Each block holds one compound with its values, some of them ahead of it.
Assays:
[1] = tested on: BCWM.1 cells; experiment: Antibody-dependent cell-mediated cytotoxicity assay (ADCC); type: cell-based, human; conditions: E/T ratio of 10:1; rituximab 10 μg/mL, everolimus 1 nM, bortezomib 5 nM
Experimental: Briefly, interleukin-2 (IL-2; R&D, Minneapolis, Minn.)-activated PBMCs were used as effector cells and calcein-AM-labeled BCWM.1 cell line, as targets. PBMCs were separated from leukopheresis products from healthy donors over Ficoll-Hypaque solution after informed consent. Effector cells were used immediately at 37° C. in RPMI complete media after being activated with IL-2 (100 UI/mL for 36 hours). Target cells were labeled with calcein-AM for 1 hour at 37° C., washed thrice, and plated in triplicate in 96-well plates (5000 cells per well). ADCC was performed in the presence of rituximab (10 μg/mL) or human control IgG1 (2 ng/mL) at various effector-target (E/T) ratios (10:1, 20:1, and 40:1). The 96-well plates were centrifuged at 30 g for 2 minutes at room temperature, followed by a 4-hour incubation at 37° C. Culture supernatants were transferred to a Black ViewPlate-96 plate and read on Wallac VICTOR2 using 492/520 nm filter set (Perkin Elmer). Combinatory studies using everolimus (1 nM), Bortezomib (5 nM) and Rituximab (10 μg/mL) were also performed. This assay was valid only if (mean maximum release−medium control release)/(mean spontaneous release−medium control release) was more than 7. Spontaneous release is the CPM in the supernatant from wells containing target cells alone. Maximum release is the supernatants of wells containing target cells and Triton X-100. […]

[2] = tested on: WM-WSU, RL, MWCL.1 cells; experiment: MTT cytotoxicity on IgM low-grade lymphoma cells; type: cell-based, human; conditions: 0.01-40 nM, 48 hours
[3] = tested on: BCWM.1 cells; experiment: Cell cycle analysis, PI staining and flow cytometry; type: cell-based, human; conditions: for cells in S phase: 12 hours (control 36.29%); for G1 phase BCWM.1 cells: 12 hours (control 52.52%)
[4] = tested on: BCWM.1 cells; experiment: MTT cytotoxicity assay; type: cell-based, human
[5] = tested on: BCWM.1 cells; experiment: Transwell migration assay towards SDF-1; type: cell-based, human; conditions: 0.01-1 nM, 4 hours, 30 nM SDF-1
Experimental: Transwell migration assay (Costar; Corning, Acton, Mass.) was performed using BCWM.1 cells in the presence or absence of 30 nM SDF-1, as described (Azab A. K., et al., Blood, 114(3):619-29 (2009)).
(§1) The bone marrow (BM) microenvironment confers growth and induces drug resistance in malignant cells (Mitsiades C. S. et al., Eur. J. Cancer., 42(11):1564-73 (2006)). It was therefore sought to determine the anti-tumor activity of everolimus in the presence of the BM microenvironment. It was first investigated whether everolimus inhibits WM cell growth in the context of the BM milieu. BCWM.1 cells were exposed to everolimus (0.1-10 nM) in the presence or absence of BMSCs for 48 hours. The viability of BMSCs assessed by MTT was not affected by everolimus treatment (data not shown). […] Next, the efficacy of everolimus in affecting migration and adhesion of WM cells was evaluated. […] To study the effect of everolimus on the migration of WM cells, BCWM.1 cells were incubated with everolimus (0.01-1 nM) for 4 hours. […] Cells were then subjected to migration as previously reported (Roccaro A. M. et al., Blood, 113(26):6669-80 (2009)).

[6] = tested on: NF-κB p65; experiment: NF-κB p65 DNA-binding activity (Active Motif TransAM) in nuclear extracts; type: cell-based, human; conditions: BCWM.1 and MWCL.1; everolimus 1 nM or bortezomib 5 nM, 4 hours; TNF-α 10 ng/mL
Description: NF-κB activity was investigated using the Active Motif TransAM kits, a DNA-binding enzyme-linked immunosorbent assay (ELISA)-based assay (Active Motif North America, Carlsbad, Calif.).

[7] = tested on: BCWM.1 cells; experiment: Thymidine uptake cell proliferation assay; type: cell-based, human; conditions: 0.01-40 nM, 48 hours
[8] = tested on: BCWM.1 cells; conditions: everolimus 0.5 nM alone, 48 hours
[9] = tested on: mammalian target of rapamycin (mTOR); experiment: Immunohistochemistry of p-4EBP1 and p-S6R in bone marrow biopsies pre- and post-everolimus; type: in vivo, human
Description: Bone marrow biopsies from WM patients at pretreatment and at the end of therapy were fixed in Zenker's formalin, embedded in paraffin blocks, and sectioned. Sections were stained for phospho(p)-4EBP1 and p-S6R (Cell Signaling Technology, Inc.). Signal quantification for each target was obtained from four different areas, on matched pre- and post-everolimus treatment of 4 patients presenting with partial response; and on matched pre- and post-everolimus treatment of 3 patients presenting with stable disease. Numbers of positive cells were obtained on 4 different fields of the bone marrow biopsy, and average and standard deviation provided, as previously described (Fingar D. C. et al., Mol. Cell. Biol., 24(1):200-16 (2004).
In contrast, everolimus-dependent modulation of phosphorylated ribosomal protein S6 (phospho(p)-S6R) and p-4EBP1 was not observed in those patients with stable disease (FIG. 9C).

[10] = tested on: HUVECs; experiment: Morphogenesis assay on Matrigel (capillary tubule formation); type: cell-based, human
Experimental: Unpolymerized Matrigel (17 mg/mL; Becton Dickinson, Mountain View, Calif.) was placed (50 μL/well) in a 96-well microtiter plate (0.32 cm2/well) and polymerized for 1 hour at 37° C. HUVECs and MMECs (5×10^3 per well) in 200 μL of DMEM/10% FCS (positive control), serum-free medium (negative control), as well as in the presence or absence of everolimus (0-0.01-0.1-1-10 nM) were layered onto the Matrigel surface. After 6 hours of incubation in a 5% CO2 humidified atmosphere at 37° C., cell growth and tridimensional organization were observed using a reverted phase-contrast light microscope, as described (Roccaro A. M. et al., Cancer Res., 66(1):184-91 (2006)).

[11] = tested on: BCWM.1 cells; experiment: Western blot of p-4EBP1 and p-70S6K in BCWM.1 cells cultured with HUVECs; conditions: 0.01-10 nM, 6 hours
[12] = tested on: BCWM.1 and MWCL.1 cells; experiment: Caspase-9, caspase-3 and PARP cleavage (Western blot, Caspase 3/7 Glo Assay); type: cell-based, human; conditions: 0.1-10 nM, 24 hours
Experimental: WM cell lines have been exposed to everolimus (0.1-10 nM) for 24 hours and caspase activation has been assessed using Caspase 3/7 Glo Assay (Promega, Madison, Wis.), according to manufacturer's procedure.

[13] = tested on: primary WM bone-marrow derived CD19+ cells; experiment: MTT cytotoxicity on primary WM cells; type: cell-based, human; conditions: 0.1-10 nM, 48 hours, 4 patients with relapsed/refractory WM
Experimental: Next, it was sought to determine the underlying mechanisms that led to everolimus-dependent anti-tumor effect in WM. The activity of everolimus in targeting WM cells was tested in primary WM CD19^+ cells, and WM and IgM secreting lymphoma cell lines (BCWM1; MWCL.1; RL), as well as in normal PBMC-derived CD19^+ cells. […] Everolimus-induced toxicity in WM and IgM secreting lymphoma cell lines was subsequently validated.

[14] = tested on: BCWM.1 cells; experiment: [3H]-TdR uptake of BCWM.1 cells adherent to BMSCs; type: cell-based, human; conditions: 0.1-10 nM, 48 hours
Experimental: as §1

[15] = patients with relapsed or refractory WM, oral; cited from earlier work
[16] = tested on: BCWM.1 and MWCL.1 cells; experiment: MTT cytotoxicity in miRNA-155 knockdown probe-transfected WM cell lines; type: cell-based, human; conditions: 0.1-1-10 nM, 48 hours, knockdown probe vs scramble probe
[17] = tested on: mTOR; experiment: Western blot of p-mTOR, p-p70S6K, p-4EBP1 in BCWM.1 and MWCL.1 cells; type: cell-based, human; conditions: 0.1-10 nM, 6 hours
[18] = tested on: BCWM.1 cells; experiment: [3H]-thymidine uptake of BCWM.1 cells in presence of endothelial cells (HUVECs); type: cell-based, human; conditions: 0.01-10 nM, 48 hours
[19] = tested on: BCWM.1 cells; experiment: Immunoblotting of cyclin D1, cyclin D2, p27Kip1, p21Cip1; type: cell-based, human; conditions: 0.1-10 nM, 12 hours
[20] = tested on: primary peripheral blood-derived CD19+ cells; experiment: MTT cytotoxicity on healthy donor cells; type: cell-based, human; conditions: healthy individuals, 60-1000 nM, 48 hours
[21] = tested on: BMSCs; experiment: MTT viability of BMSCs; type: cell-based, human; conditions: 0.1-10 nM, 48 hours
Experimental: as §1

[22] = tested on: WM and IgM low grade lymphoma cell lines (BCWM.1, MWCL.1 and RL); experiment: Adhesion to primary WM bone marrow stromal cells; type: cell-based, human; conditions: 0.01-1 nM
Experimental: as §1

[23] = tested on: miRNA-155; experiment: qRT-PCR of miRNA-155 level in WM cell lines; type: cell-based, human; conditions: BCWM.1; MWCL.1; 0.1-1-10 nM, 12 hours
Experimental: qRT-PCR for miRNA-155 (TaqMan microRNA Assays, Applied Biosystems, Foster City, Calif.) was performed on an Applied Biosystems AB7500 Real Time PCR system.

[24] = tested on: WM and IgM low-grade lymphoma cells (BCWM.1; MWCL.1; RL); experiment: DNA fragmentation (Cell Death Detection ELISA), apoptosis; type: cell-based, human; conditions: 0.1-10 nM, 24 hours
Description: Cell Death Detection ELISA (Roche Applied Science, Indianapolis, Ind.) was used to quantify DNA fragmentation, as per the manufacturer's instructions, and as previously described (Sacco A. et al., Clin Cancer Res., 17(7):1753-64 (2011)).

Compound: rituximab: the anti-CD20 antibody, rituximab
specific lysis [1]: 37.7%

TNF-α-induced NF-κB recruitment to the nucleus, single agents [6]: similarly inhibited
Compound: CO[C@H]1C[C@@H]2CC[C@@H](C)[C@@](O)(O2)C(=O)C(=O)N2CCCC[C@H]2C(=O)O[C@H]([C@H](C)C[C@@H]2CC[C@@H](OCCO)[C@H](OC)C2)CC(=O)[C@H](C)/C=C(\C)[C@@H](O)[C@@H](OC)C(=O)[C@H](C)C[C@H](C)/C=C/C=C/C=C/1C [everolimus, 40-O-(2-hydroxyethyl) derivative of sirolimus (rapamycin)]
cytotoxicity [2]: induction of cytotoxicity was validated | cells in S phase ([3]; 0.1 nM everolimus): 29.14% | G1 phase BCWM.1 cells ([3]; 0.1 nM everolimus): 61.25% | cells in S phase ([3]; 1 nM everolimus): 21.71% | G1 phase BCWM.1 cells ([3]; 1 nM everolimus): 70.98% | cell cycle progression ([3]; 0.1-10 nM, 12 hours): cell cycle arrest | cytotoxicity at doses used for migration ([4]; 0.01-1 nM, 4 hours): did not induce cytotoxicity | cytotoxicity ([4]; 0.01-40 nM, 48 hours): inducing cytotoxicity in a dose-dependent manner | migration towards SDF-1 [5]: inhibited WM cell migration towards SDF-1, in a dose-dependent manner | migration towards SDF-1 ([5]; listed as Everolimus): inhibited SDF-1-induced migration | cell proliferation [7]: inhibiting cell proliferation | cytotoxicity, % of BCWM.1 cells [8]: 24% | phosphorylation of S6R and 4EBP1 in bone marrow biopsies ([9]; patients with partial response, pre- vs post-everolimus): inhibition of phosphorylation | modulation of p-S6R and p-4EBP1 in bone marrow biopsies ([9]; patients with stable disease): not observed | capillary formation ([10]; 1 nM everolimus): almost complete inhibition of capillary formation | endothelial cell morphogenesis on Matrigel ([10]; 0.01-10 nM): inhibited endothelial cell morphogenesis on Matrigel in a dose-dependent manner | endothelial cell-dependent phosphorylation of 4EBP1 and 70SK in WM cells [11]: inhibited endothelial cell-dependent phosphorylation of 4EBP1 and 70SK | caspase-9, -3 and PARP cleavage [12]: induced caspase-9, -3 and PARP cleavage in a dose dependent manner | cytotoxic effect [13]: significantly induced toxicity in all the 4 samples | BMSC-triggered proliferation of BCWM.1 cells [14]: inhibited by everolimus in a dose-dependent manner | minor response [15]: 28% | overall response rate [15]: 70% | partial response (PR) [15]: 42% | everolimus-dependent induction of toxicity after miRNA155 knock down [16]: partially inhibited by knocking down miRNA155 | p-mTOR, p-p70S6K and p-4EBP1 [17]: inhibition | WM cell proliferation in presence of endothelial cells [18]: reduced WM cell proliferation, despite the presence of endothelial cells | cyclin D1 and cyclin D2 [19]: down-regulation | cyclin kinase inhibitor proteins p27Kip1, p21Cip1 [19]: up-regulation | cytotoxicity [20]: did not show cytotoxicity | viability of BMSCs [21]: not affected | cell adhesion to primary WM bone marrow stromal cells [22]: inhibited WM cell adhesion in a dose-dependent manner | miRNA155 level [23]: inhibited miRNA155 level in a dose-dependent manner | apoptosis (DNA fragmentation) [24]: induced apoptosis in a dose-dependent manner
